From patent publication US9256062B2, “Electrowetting display apparatus and dye composition for electrowetting display” (FUJIFILM CORPORATION, priority 2012, dated 2016)

Assays:
Format in all cases: physicochemical
[1] = Color tone of colored solution, visually observed; conditions: 0.001%-by-mass n-decane solution
Source text: (§1) Azamethine colorants (the above-mentioned Exemplary Compounds 16, 17, 1, and 3 shown in Table 1 below) and n-decane that was an organic solvent were mixed, respectively, thereby preparing 4 kinds of 0.001%-by-mass n-decane solutions (colored compositions) colored with the azamethine colorants, respectively.
(§2) Separately, azo colorants (Comparative Compounds 1 to 3 mentioned below) and n-decane that was an organic solvent were mixed, respectively, thereby preparing 3 kinds of 0.001%-by-mass n-decane solutions (comparative colored compositions) colored with the azo colorants, respectively, as comparative colored compositions.
Each of the colored solutions (colored compositions) was visually observed and evaluated regarding the color tone thereof.

[2] = Maximum absorption wavelength, absorbance and absorption coefficient (visible light spectrophotometer); conditions: for Absorbance (abs) / Maximum absorption wavelength (λmax): 0.001%-by-mass n-decane solution; for Molar absorption coefficient (ε): at maximum absorption wavelength, calculated by Lambert-Beer law, n-decane solution; for molar extinction coefficients (ε) (in words): summary of Table 1
Source text: as §1, §2
The maximum absorption wavelength (λmax) and the absorbance of the colored solutions (colored compositions) were measured using a visible light spectrophotometer (UV-1800 PC, trade name, manufactured by Shimadzu Corporation). Further, the molar extinction coefficient (∈) at a maximum absorption wavelength (λmax) of the colorants included in the colored solutions (the colored compositions) was calculated, based on a Lambert-Beer law.

Solubility in hexane = conditions: for Solubility in hexane [%]: n-hexane, 25° C. and 0.1 MPa, % by mass; for solubility in hexane (in words): summary of Table 1
Experimental: The solubility of each of the colorants in n-hexane as a non-polar solvent was measured as described below.
The respective colorants were each dissolved in n-hexane that had been heated to 50° C. to prepare a saturated solution, and then, the obtained saturated solution was left to stand for 1 hour under an environment of 25° C. and 0.1 MPa. The precipitated colorant was filtered, and the precipitation amount was measured to calculate the solubility (% by mass) of each of the colorants in n-hexane at 25° C. and 0.1 MPa.

[3] = Relative dielectric constant of colorant; conditions: for Relative dielectric constant (1 kHz): extrapolated to colorant concentration 100% from diluted n-decane solutions, 1.0 V, 20° C., 40% RH; for relative dielectric constants (in words): summary of Table 1
Experimental: Herein, the relative dielectric constant of the colorant denotes a relative dielectric constant (calculated value) at a colorant concentration of 100%, as determined by extrapolating a straight line (calibration curve) indicating the relationship between the colorant concentration and the relative dielectric constant in a diluted colorant solution.
An equivalent parallel capacitance when a measurement frequency 1 kHz and a measurement voltage of 1.0 V are applied is measured in the state in which a diluted colorant solution is sandwiched between two electrodes facing each other with an electrode interval of 10 μm, and the relative dielectric constant of the diluted colorant solution is calculated by the following equation, based on the equivalent parallel capacitance thus obtained. Relative dielectric constant of diluted colorant solution=Equivalent parallel capacitance×Electrode interval/Electrode area/Dielectric constant of vacuum (∈0)
The relative dielectric constant of each of the colorants is determined by the following method.
That is, the relative dielectric constants of plural diluted colorant solutions at various concentrations, which had been prepared as described in (4-1) below, were measured, respectively, in the manner as described in (4-2) below. From the results obtained, a straight line (calibration curve) showing the relationship between the colorant concentrations and the relative dielectric constants were created. The relative dielectric constant (calculated value) at a colorant concentration of 100% was determined by extrapolating the straight line (calibration curve), and the obtained value was taken as the relative dielectric constant of the colorant.
The respective colorants and n-decane as an organic solvent are mixed, to thereby prepare n-decane solutions (diluted colorant solutions) at various concentrations, respectively.
A diluted colorant solution was sandwiched between ITO electrode-containing glass substrates that are flat plates in parallel facing each other at an electrode interval of 10 μm, and then an equivalent parallel capacitance was measured at the time of voltage application for measurement of 1.0 V at a frequency for measurement of 1 kHz under the conditions of 20° C. and 40% RH using a Model 2353LCR meter (trade name, manufactured by NF Corporation). Based on the equivalent parallel capacitance, the relative dielectric constant of the diluted colorant solution was determined in accordance with the following equation.
Relative dielectric constant of diluted colorant solution=Equivalent parallel capacitance×Interval of electrodes/Area of electrode/Dielectric constant of vacuum (∈0)

Row | Color of solution [1] | Absorbance (abs) [2] [abs] | Maximum absorption wavelength (λmax) [2] [nm] | Molar absorption coefficient (ε) [2] [L/mol/cm] | molar extinction coefficients (ε) (in words) [2] | Solubility in hexane [%] (Solubility in hexane) | solubility in hexane (in words) (Solubility in hexane) | Relative dielectric constant (1 kHz) [3] | relative dielectric constants (in words) [3] | Structure (SMILES)
1 | Orange | 0.533 | 492 | 28600 | high | 10% | high solubility | 3.3 | low | CCCCC(CC)c1nnc2n1N=C(C(C)(C)C)/C2=N/c1c(C(C)(C)C)nn2c(C(CC)CCCC)n[nH]c12 (stereo not drawn) [Exemplary Compound 1]
2 | Red | 0.797 | 545 | 56900 | high | ≥ 40 or % | high solubility | 5.1 | low | CCCCC(CC)c1n[nH]c2c(/N=C3/C(C#N)=C(C(=O)OC4C(C(C)(C)C)CC(C)CC4C(C)(C)C)c4nc(C(C)(C)C)nn43)c(C(C)(C)C)nn12 (stereo not drawn) [Exemplary Compound 3]
